Consider 25 molecules from patent publication US20260226019A1, “NEGATIVE ALLOSTERIC MODULATORS OF METABOTROPIC GLUTAMATE RECEPTOR 2” (Vanderbilt University, priority 2023, published 2026).

One assay deals with T1, human mGlu2 (Homo sapiens, UniProt Q14416).
T1 construct: expressed in transfected cells; host or cells: HEK-293 stably co-expressing GIRK channels
The assay can be described thus: mGlu GIRK cell-based thallium flux assay, human mGlu2. The conditions noted are these: HEK-293 cells co-expressing human mGlu2 and GIRK, EC80 glutamate, single experiment. As for the experimental part: (§1) Human embryonic kidney (HEK-293) cell lines stably co-expressing human or rat mGlu2 and G protein-coupled inwardly rectifying potassium (GIRK) channels, or human mGlu3 and GIRK, were used for in vitro evaluation of compound activity in thallium flux assay using a fluorescent thallium indicator dye.
(§2) The day before the assay, GIRK cells co-expressing human mGlu3, human or rat mGlu2, as described above, were plated in black-walled, clear-bottomed, amine-coated 384-well plates at a density of 15,000 cells/[…]/well in the assay medium (glutamine-depleted basal DMEM supplemented with 10% dialyzed FBS, 20 mM HEPES, 1 mM sodium pyruvate). Cells were incubated at 37° C. in the presence of 5% CO2. The next day, assay buffer (Hanks balanced salt solution, 20 mM HEPES, 4.16 mM sodium bicarbonate, pH 7.2) was prepared to dilute compounds and Thallos AM fluorescent dye solution. The 2× Thallos dye solution (final concentration 0.34 μM to the cells) was prepared by mixing the dye stock (2.97 mM in DMSO) to 1:1 with 10% pluronic acid before adding to the assay buffer. Cells were washed with assay buffer using a microplate washer to remove the medium, resulting in 20 μL of buffer remaining in each well. […] During the cell dye loading incubation period, a 10-point concentration serial dilution of compound was created from a 10 mM DMSO compound stock by performing a 1:3 serial dilution in DMSO using the Bravo liquid handler. The 2× compound plate was generated by transferring 0.24 μL of the diluted compound in each well to a daughter plate using an Echo acoustic liquid handler. This is further diluted in 40 μL assay buffer, resulting in a range from […] to 1.5 nM final concentration in the assay. The agonist plate (5×) was prepared to include EC80 glutamate concentration (a concentration to elicit 80% of a maximally effective glutamate concentration) in thallium buffer (125 mM sodium bicarbonate, 1 mM magnesium sulfate, 1.8 mM calcium sulfate, 5 mM glucose, 10 mM HEPES, pH 7.2, 12.5 mM thallium sulfate).
(§3) After dye-loading, cell plates were washed with assay buffer to remove excess extracellular dye using a microplate washer, resulting in 20 μL of buffer remaining in each well. After a ten-minute equilibration period, cell, compound and agonist plates were loaded into a Hamamatsu μCell kinetic imaging plate reader equipped with liquid handler to monitor fluorescence changes at 480 nm excitation and 540 nm emission settings. Briefly, after collection of baseline fluorescence, 20 μL of compound was added and incubated for two minutes and twenty seconds. This is immediately followed by adding 10 μL of glutamate-thallium buffer to the wells containing compound. The fluorescent signal was monitored an additional 2.5 minutes after the glutamate addition. Multiple reference wells containing no compound received either no glutamate (for a baseline reference), EC80 glutamate, or ECmax glutamate (for normalization to maximum response). […] Each compound concentration series occurred one time in each plate, and replicates from two or three plates were used in each experimental run. Thallium solutions were handled and disposed of according to guidelines from the Vanderbilt University Chemical Safety department.
(§4) Data were normalized using a static ratio function (F/F0) by dividing every fluorescent measurement by the initial fluorescent value for the corresponding well. The increase in signal resulting from the glutamate/thallium addition of the second add was measured by determining the slope from 3 seconds to 13 seconds after the addition. The average of all baseline slopes (no compound, no glutamate) was determined and this value was subtracted from all other slope values. The average of all ECmax slopes was determined and this value was used to normalize the baseline-corrected slopes to a percent max value (% Emax).

For the next assay, the target named is T2, human mGlu3 (Homo sapiens, UniProt Q14832).
T2 construct: expressed in transfected cells; host or cells: HEK-293 stably co-expressing GIRK channels
T2 sequence (Q14832 23-879): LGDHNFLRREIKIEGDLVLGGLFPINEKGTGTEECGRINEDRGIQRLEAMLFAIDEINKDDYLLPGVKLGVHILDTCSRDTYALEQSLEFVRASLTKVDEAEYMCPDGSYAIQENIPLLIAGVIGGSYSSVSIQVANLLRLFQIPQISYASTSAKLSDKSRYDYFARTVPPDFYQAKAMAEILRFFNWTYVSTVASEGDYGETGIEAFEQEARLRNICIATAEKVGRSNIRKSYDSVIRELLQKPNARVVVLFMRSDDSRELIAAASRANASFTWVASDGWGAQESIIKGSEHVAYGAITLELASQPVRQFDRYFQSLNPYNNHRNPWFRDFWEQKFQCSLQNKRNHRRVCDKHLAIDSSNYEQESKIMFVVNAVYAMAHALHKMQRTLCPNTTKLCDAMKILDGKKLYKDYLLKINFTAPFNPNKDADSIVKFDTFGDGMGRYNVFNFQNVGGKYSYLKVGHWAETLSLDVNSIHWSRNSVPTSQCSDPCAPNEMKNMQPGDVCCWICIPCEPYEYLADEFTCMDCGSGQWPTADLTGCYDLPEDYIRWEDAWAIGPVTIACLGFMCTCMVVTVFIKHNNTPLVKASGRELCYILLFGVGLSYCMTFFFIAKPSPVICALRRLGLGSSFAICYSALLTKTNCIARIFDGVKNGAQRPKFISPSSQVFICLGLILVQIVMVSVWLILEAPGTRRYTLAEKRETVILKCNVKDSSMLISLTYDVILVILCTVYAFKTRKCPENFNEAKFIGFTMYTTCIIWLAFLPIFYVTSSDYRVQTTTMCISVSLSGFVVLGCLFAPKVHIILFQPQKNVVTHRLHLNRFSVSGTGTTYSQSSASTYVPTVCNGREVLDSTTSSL
The assay can be described thus: mGlu GIRK cell-based thallium flux assay, human mGlu3. The conditions noted are these: HEK-293 cells co-expressing human mGlu3 and GIRK, EC80 glutamate, single experiment. As for the experimental part:
as §1, §2, §3, §4

T1 sequence (Q14416 19-872): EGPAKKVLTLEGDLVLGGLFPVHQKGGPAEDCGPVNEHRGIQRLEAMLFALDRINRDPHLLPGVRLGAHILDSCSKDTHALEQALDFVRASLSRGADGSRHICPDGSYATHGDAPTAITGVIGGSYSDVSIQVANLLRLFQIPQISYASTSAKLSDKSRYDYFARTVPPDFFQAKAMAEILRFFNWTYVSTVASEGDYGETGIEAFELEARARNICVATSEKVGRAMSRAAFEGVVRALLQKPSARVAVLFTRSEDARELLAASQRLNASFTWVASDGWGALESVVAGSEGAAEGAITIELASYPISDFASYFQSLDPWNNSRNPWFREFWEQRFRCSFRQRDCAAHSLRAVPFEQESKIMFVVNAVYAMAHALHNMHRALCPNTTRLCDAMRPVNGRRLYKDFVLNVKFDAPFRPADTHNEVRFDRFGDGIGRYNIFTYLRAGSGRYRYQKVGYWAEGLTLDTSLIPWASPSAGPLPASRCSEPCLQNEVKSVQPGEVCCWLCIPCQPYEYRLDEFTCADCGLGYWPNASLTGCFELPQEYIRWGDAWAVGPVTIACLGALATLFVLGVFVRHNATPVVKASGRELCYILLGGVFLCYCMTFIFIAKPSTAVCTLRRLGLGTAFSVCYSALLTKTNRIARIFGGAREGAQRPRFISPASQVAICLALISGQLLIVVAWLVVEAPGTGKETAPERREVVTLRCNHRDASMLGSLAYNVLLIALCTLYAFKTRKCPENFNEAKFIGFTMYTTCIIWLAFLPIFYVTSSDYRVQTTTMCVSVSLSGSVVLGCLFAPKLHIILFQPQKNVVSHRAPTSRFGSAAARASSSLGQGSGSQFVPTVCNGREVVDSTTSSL

Take `Cn1cc(-c2cc(-c3ccc(F)cc3F)cc3c2CNC3=O)cn1` [Compound 19, 6-(2,4-difluorophenyl)-4-(1-methyl-1H-pyrazol-4-yl)isoindolin-1-one]: at human mGlu2, the IC50 (commonly the concentration at which inhibition is half-maximal) came to 181 nM. In addition, the “Human mGlu3 GIRK IC50 (nM)” value at human mGlu3 was “Inactive”.
For the molecule `CC(C)n1nccc1-c1cc(-c2ccc(F)cc2F)cc2c1CNC2=O` [Compound 30, 6-(2,4-difluorophenyl)-4-(1-isopropyl-1H-pyrazol-5-yl)isoindolin-1-one], the IC50 was 126 nM at human mGlu2 and over 10000 nM on human mGlu3.
`CC(=O)Nc1ccc(-c2cc(-c3ccc(F)cc3F)cc3c2CNC3=O)cn1` [Compound 34, N-(5-(6-(2,4-difluorophenyl)-1-oxoisoindolin-4-yl)pyridin-2-yl)acetamide] gave a half-inhibitory concentration (IC50) against human mGlu2 of 185 nM. The “Human mGlu3 GIRK IC50 (nM)” value on human mGlu3 was “Inactive”.
In the case of `O=C1NCc2c1cc(-c1ccc(F)cc1F)cc2-c1ccc(C2CC2)nc1` [Compound 36, 4-(6-cyclopropylpyridin-3-yl)-6-(2,4-difluorophenyl)isoindolin-1-one], the IC50 at human mGlu2 is 1230 nM; against human mGlu3, over 10000 nM.
For the molecule `O=C1NCc2c1cc(-c1ccc(F)cc1F)cc2-c1ccc2nccn2c1` [Compound 38, 6-(2,4-difluorophenyl)-4-(imidazo[1,2-a]pyridin-6-yl)isoindolin-1-one], the IC50 at human mGlu2 is 198 nM; against human mGlu3 it was 6410 nM.
Consider `CSc1ncc(-c2cc(-c3ccc(F)cc3F)cc3c2CNC3=O)cn1` [Compound 39, 6-(2,4-difluorophenyl)-4-(2-(methylthio)pyrimidin-5-yl)isoindolin-1-one], for which the IC50 against human mGlu2 came out at 555 nM; against human mGlu3, 3960 nM.
`O=C1NCc2c1cc(-c1ccc(F)cc1F)cc2-c1ccc(=O)n(C(F)F)c1` [Compound 40, 4-(1-(difluoromethyl)-6-oxo-1,6-dihydropyridin-3-yl)-6-(2,4-difluorophenyl)isoindolin-1-one] registered an IC50 against human mGlu2 of 66 nM. Moreover, on human mGlu3, the “Human mGlu3 GIRK IC50 (nM)” value is reported as “Inactive”.
For the molecule `Cc1nn(CC(C)(C)O)c(C)c1-c1cc(-c2ccc(F)cc2F)cc2c1CNC2=O` [Compound 41, 6-(2,4-difluorophenyl)-4-(1-(2-hydroxy-2-methylpropyl)-3,5-dimethyl-1H-pyrazol-4-yl)isoindolin-1-one], the IC50 on human mGlu2 is 435 nM; against human mGlu3, over 10000 nM.
As for `CC(C)Oc1cc(-c2cc3c(c(-c4cnsc4)c2)CNC3=O)ccc1C#N` [Compound 62, 2-isopropoxy-4-(7-(isothiazol-4-yl)-3-oxoisoindolin-5-yl)benzonitrile], at human mGlu2, the “Human mGlu2 GIRK IC50 (nM)” value is “Inactive”. The IC50 at human mGlu3 is over 10000 nM.
At human mGlu2, `O=C1NCc2c1cc(-c1ccc(F)cc1F)cc2-c1cnn(C2CCOC2)c1` (centres unmarked) [Compound 63, 6-(2,4-difluorophenyl)-4-(1-(tetrahydrofuran-3-yl)-1H-pyrazol-4-yl)isoindolin-1-one] registered an IC50 of 203 nM. The “Human mGlu3 GIRK IC50 (nM)” value at human mGlu3 is “Inactive”.
`O=C1NCc2c1cc(-c1ccc(F)cc1F)cc2-c1ccc[nH]c1=O` [Compound 64, 6-(2,4-difluorophenyl)-4-(2-oxo-1,2-dihydropyridin-3-yl)isoindolin-1-one] showed an IC50 at human mGlu2 of 298 nM. Further, at human mGlu3, the “Human mGlu3 GIRK IC50 (nM)” value is listed as “Inactive”.
With `O=C1NCc2c1cc(-c1ccc(F)cc1F)cc2-c1cccnc1N1CCCC1` [Compound 66, 6-(2,4-difluorophenyl)-4-(2-(pyrrolidin-1-yl)pyridin-3-yl)isoindolin-1-one], the half-maximal inhibitory concentration (IC50) against human mGlu2 is 528 nM; against human mGlu3, over 10000 nM.
On to `Cc1nc(F)ccc1-c1cc(-c2ccc(F)cc2F)cc2c1CNC2=O` [Compound 72, 6-(2,4-difluorophenyl)-4-(6-fluoro-2-methylpyridin-3-yl)isoindolin-1-one], for which the figures for the concentration for half-maximal inhibition (IC50) against human mGlu2 and against human mGlu3 were 104 nM and over 10000 nM, respectively.
In the case of `O=C1NCc2c1cc(-c1ccc(F)cc1F)cc2-c1ccc(F)nc1F` [Compound 73, 6-(2,4-difluorophenyl)-4-(2,6-difluoropyridin-3-yl)isoindolin-1-one], the values for the half-inhibitory concentration (IC50) at human mGlu2 and at human mGlu3 were 157 nM and over 10000 nM, respectively.
Regarding `CC(C)Oc1ncccc1-c1cc(-c2ccc(F)cc2F)cc2c1CNC2=O` [Compound 75, 6-(2,4-difluorophenyl)-4-(2-isopropoxypyridin-3-yl)isoindolin-1-one], the IC50 on human mGlu2 is 865 nM; at human mGlu3, over 10000 nM.
`CC(C)Cn1nccc1-c1cc(-c2ccc(F)cc2F)cc2c1CNC2=O` [Compound 76, 6-(2,4-difluorophenyl)-4-(1-isobutyl-1H-pyrazol-5-yl)isoindolin-1-one]: the IC50 at human mGlu2 was 179 nM; against human mGlu3, over 10000 nM.
On to `Cn1nc(C(F)(F)F)cc1-c1cc(-c2ccc(F)cc2F)cc2c1CNC2=O` [Compound 78, 6-(2,4-difluorophenyl)-4-(1-methyl-3-(trifluoromethyl)-1H-pyrazol-5-yl)isoindolin-1-one], for which the IC50 on human mGlu2 is 204 nM. In addition, the “Human mGlu3 GIRK IC50 (nM)” value on human mGlu3 is “Inactive”.
In turn, `CC(C)n1nccc1-c1cc(C2=CCOCC2)cc2c1CNC2=O` [Compound 86, 6-(3,6-dihydro-2H-pyran-4-yl)-4-(1-isopropyl-1H-pyrazol-5-yl)isoindolin-1-one] registered an IC50 at human mGlu2 of 175 nM. Besides, the “Human mGlu3 GIRK IC50 (nM)” value on human mGlu3 is “Inactive”.
For the molecule `CC(C)n1nccc1-c1cc(C2=CCC3(CC2)OCCO3)cc2c1CNC2=O` [Compound 87, 4-(1-isopropyl-1H-pyrazol-5-yl)-6-(1,4-dioxaspiro[4.5]dec-7-en-8-yl)isoindolin-1-one], the IC50 on human mGlu2 came out at 3810 nM. Also, the “Human mGlu3 GIRK IC50 (nM)” value at human mGlu3 is listed as “Inactive”.
On to `O=C1NCc2c1cc(-c1ccc(F)cc1F)cc2N1CCn2nccc21` [Compound A2, 6-(2,4-difluorophenyl)-4-(2,3-dihydro-1H-imidazo[1,2-b]pyrazol-1-yl)isoindolin-1-one], for which the midpoint of inhibition on human mGlu2, the IC50, lay at 218 nM. The “Human mGlu3 GIRK IC50 (nM)” value at human mGlu3 is recorded as “Inactive”.
In the case of `O=C1NCc2c1cc(-c1ccc(F)cc1F)cc2N1CCS(=O)(=O)CC1` [Compound A3, 6-(2,4-difluorophenyl)-4-(1,1-dioxidothiomorpholino)isoindolin-1-one], the half-inhibitory concentration (IC50) against human mGlu2 turned out to be 2970 nM. Further, the “Human mGlu3 GIRK IC50 (nM)” value at human mGlu3 is reported as “Inactive”.
In the case of `O=C1NCc2c1cc(-c1ccc(F)cc1F)cc2N1CCOCC1` [Compound A4, 6-(2,4-difluorophenyl)-4-morpholinoisoindolin-1-one], the figures for the IC50 against human mGlu2 and against human mGlu3 were 380 nM and over 10000 nM, respectively.
As for `CC1(C)CN(c2cc(-c3ccc(F)cc3F)cc3c2CNC3=O)CC(C)(C)O1` [Compound A6, 6-(2,4-difluorophenyl)-4-(2,2,6,6-tetramethylmorpholino)isoindolin-1-one], on human mGlu2, half-maximal inhibition (IC50) required 2090 nM. Besides, the “Human mGlu3 GIRK IC50 (nM)” value at human mGlu3 is reported as “Inactive”.
At human mGlu2, `CC1(C#N)CCN(c2cc(-c3ccc(F)cc3F)cc3c2CNC3=O)C1` (centres unmarked) [Compound A7, 1-(6-(2,4-difluorophenyl)-1-oxoisoindolin-4-yl)-3-methylpyrrolidine-3-carbonitrile] displayed an IC50 of 361 nM. Moreover, the “Human mGlu3 GIRK IC50 (nM)” value on human mGlu3 is recorded as “Inactive”.
Molecule `CC(C)(O)C1CCN(c2cc(-c3ccc(F)cc3F)cc3c2CNC3=O)C1` (centres unmarked) [Compound A8, 6-(2,4-difluorophenyl)-4-(3-(2-hydroxypropan-2-yl)pyrrolidin-1-yl)isoindolin-1-one] displayed an IC50 on human mGlu2 of 650 nM. Also, the “Human mGlu3 GIRK IC50 (nM)” value at human mGlu3 was “Inactive”.
